Type in all cases: cell-based
Experiment [1] concerns Endothelial cells (HUVECs). The experiment is described as follows: HUVEC proliferation (3H-thymidine incorporation). To be noted: Homo sapiens, Table 1, read-out: HUVEC ED50. How it is done: (§1) a. Proliferation. The following assay was performed to assess the activity of the compounds of the invention in cell proliferation. Endothelial cells (HUVECs) were seeded in 96-well plates at a density of 10,000 cells per well in the normal growth medium (EGM-2-Clonetics) containing 2% fetal bovine serum, FGF, VEGF, IGF, ascorbic acid, EGF, GA, heparin and hydrocortisone. The cells were grown normally in the growth medium for 24 hr at 37° C. and 5% CO2. The cells were then rinsed with RPMI-1% BSA and starved for 1-2 hr. The stock solutions of the compounds of the invention were made at a concentration of 10 mg/ml in DMSO and diluted in RPMI-1% BSA at final concentrations of 0.001 uM to 50 uM. The cells were then washed and treated with the compounds and incubated for another 20 hr at 37° C. Then ^3H thymidine (0.5 microgram/ml in RPMI-BSA) was added to the cells and incubated at 37° C. for 4 hr. The unincorporated thymidine was removed by washing the cells four times with 1×PBS. Then the cells were lysed with 0.5M NaOH for 30 min and the radioactivity counted in the beta counter. A similar proliferation assay using monkey bronchial epithelial cells (4MBR-5) and oligodendrocyte cells was also employed.
For orientation: Dividing cells build labelled thymidine or BrdU into new DNA.

In the next experiment the test system is oligodendrocytes. The experiment is described as follows: Oligodendrocyte proliferation. To be noted: Mus musculus, Table 2, read-out: Oligodendrocyte ED50. How it is done:
as §1
e. Stimulation of Oligodendrocyte Proliferation. Mouse primary oligodendrocytes (Celprogen, Calif.) were seeded in 96-well plates at 5000 cells/well in serum-free medium for 16 hours. Cells were treated with test compound or HGF/SF (positive control) for 16-24 hours. WST1 cell proliferation reagent (Roche, N.J.) was added to oligodendrocytes, and incubation was continued for another 4-5 hours. Cells with WST1 reagent were read using a plate reader at an OD of 490 nm.

The subject of the next experiment is monocytes / HUVECs. The experiment is described as follows: Monocyte migration and binding to CRP-treated HUVECs; VCAM-1 and MCP-1 expression. To be noted: CRP 25 ug/ml, test compound 10 uM or HGF 50 ng/ml. How it is done:
a. Compound treatment decreases monocyte migration and binding to ECs. […] HUVECs were incubated with CRP (25 ug/ml), CRP together with test compound (10 uM) or HGF (50 ng/ml). The cellular extracts with lysis buffer and analyzed for VCAM-1 and MCP-1 expression via Western blot analysis. For Monocyte binding and migration experiments, monocytes were labeled with a fluorescent dye Vybrant Did (Molecular Probes) and treated to the HUVECs treated as above.

Regarding `CCC1CCCCN1c1ccc(-c2n[nH]c(=O)c3ccccc23)cc1[N+](=O)[O-]` (stereo not shown), the EC50 in experiment [1] was 3000 nM.

As to `O=c1[nH]nc(-c2ccc(N3CCCCCC3)c([N+](=O)[O-])c2)c2ccccc12` [drawing 50], the EC50 in experiment [1] came out at 2500 nM. With `CC1CCCN(c2ccc(-c3n[nH]c(=O)c4ccccc34)cc2[N+](=O)[O-])C1` (stereo not shown), in experiment [1], the EC50 worked out at 3000 nM. Take `O=c1[nH]nc(-c2ccc(N3CCCCCC3)c([N+](=O)[O-])c2)c2ccccc12` [drawing 57]: the EC50 in the experiment with oligodendrocytes came to 200 nM.

With `CC1CCN(c2ccc(-c3n[nH]c(=O)c4ccccc34)cc2[N+](=O)[O-])CC1` [drawing 52], the EC50 in experiment [1] stood at 5000 nM.

On to `O=c1[nH]nc(-c2ccc(N3CCCCC3)c([N+](=O)[O-])c2)c2ccccc12` [drawing 58], for which, in the experiment on oligodendrocytes, the EC50 was determined as 200 nM. In the case of `CC1CCCCN1c1ccc(-c2n[nH]c(=O)c3ccccc23)cc1[N+](=O)[O-]` (stereo not shown), the EC50 in experiment [1] came out at 2000 nM.

In the case of `CC1CCN(c2ccc(-c3n[nH]c(=O)c4ccccc34)cc2[N+](=O)[O-])CC1` [drawing 59], the EC50 with oligodendrocytes was determined as 200 nM. Take `CCCC1CCN(c2ccc(-c3n[nH]c(=O)c4ccccc34)cc2[N+](=O)[O-])CC1`: in experiment [1], the EC50 came to 4000 nM. As to “HGF: Scatter factor / hepatocyte growth factor, a pleiotropic growth factor; used as positive control”, in the experiment with monocytes / HUVECs (FIG. 17), the “monocyte migration and binding to endothelial cells” value is on record as “decreased”. Moreover, in the experiment on monocytes / HUVECs (Western blot), the MCP-1 expression entry is given as “decreased” and the VCAM-1 expression entry is on record as “decreased”.

As for `O=c1[nH]nc(-c2ccc(N3CCCCC3)c([N+](=O)[O-])c2)c2ccccc12` [drawing 51], in experiment [1], the EC50 came to 10000 nM.

Source of the values: patent US7648978B2, “Small molecule modulators of cytokine activity” (Angion Biomedica Corp., priority 2004, dated 2010).
